Measured values published in PMC6268073, “Synthesis and Antiplasmodial Activity of Betulinic Acid and Ursolic Acid Analogues” (Molecules, 2012).
“Also recorded” adds a separate entry of the source. Where two headings read alike, the source gives them in different places.

Experiments:
[1] = Cytotoxicity assay, dihydroethidium staining, flow cytometry; assay type: cell-based, human; conditions: human
Protocol: (§1) Human embryonic kidney (HEK293T) cells were cultured in surface area 75 cm^2 (Greiner Bio-One, Frickenhausen, Germany) vented tissue culture flasks at 37 °C in a humidified atmosphere containing 5% CO2 in Dulbecco’s modified essential medium (Gibco/Life Technologies, Grand Island, NY, USA) supplemented with 10% (v/v) foetal bovine serum, 100 U/mL penicillin and 100 µg/mL streptomycin. After 24 h, 50 µl of each drug was added with 0.5% DMSO or methanol to a single well. The cells were incubated with the test drugs for an additional 24 and 48 h and then harvested with trypsin, gently pelleted by centrifugation and re-suspended in PBS. The cells were stained with dihydroethidium solution (10 mg/mL in phosphate buffered saline), gently vortexed and incubated for 40 min at 37 °C in the dark. Ten thousand gated events were acquired for each sample (FACSCalibur BD and CellQuest software was used for analysis).

HEK293T cells = experiment: as above; assay type: cell-based, human; conditions: for Selectivity Index (SI) 48 h: HEK293T IC50 versus P. falciparum 3D7 IC50, 48 h; for IC50: Homo sapiens, HEK-293T; for IC50 / Cytotoxicity judgement in words: HEK293T; for Cytotoxicity judgement in words: tested concentrations 0.001-100 µM
Protocol: as §1

[2] = tested on: P. falciparum chloroquine-sensitive 3D7 strain; experiment: Antiplasmodial assay, microdilution in vitro, flow cytometry; assay type: cell-based, Plasmodium falciparum; conditions: for Antiplasmodial activity grade in words: P. falciparum 3D7; for IC50: Plasmodium falciparum
Protocol: The strains were maintained in human erythrocytes in a gas mixture containing 5% O2, 5% CO2 and 90% N2 [24]. The culture was synchronised by 10% sorbitol treatment. The antimalarial activity was measured using the microdilution technique in vitro. […] Samples were dissolved in water, dimethylsulfoxide (DMSO) or methanol and serially diluted with the culture medium. To evaluate parasitemia, Giemsa staining and flow cytometric analysis were used. The concentration of the drug required to inhibit parasite growth was determined by comparing the fluorescence incorporated into the treated and untreated cultures (control). The concentration causing 50% inhibition (IC50) was determined from the drug concentration response curve.

Plasmodium 3D7 strain = tested on: Plasmodium 3D7 strain; design: method as in PMID 14697777; conditions: 3D7 strain ref 7; read-out: IC50 anti-Plasmodium 3D7 strain; cited from earlier work
P. berghei = tested on: P. berghei; design: method as in PMID 10190183; conditions: 250 mg/kg/day ref 6; cited from earlier work
[3] = tested on: P. falciparum (3D7) isolated parasites; experiment: Cytosolic calcium in isolated parasites loaded with Fluo4/AM (spectrofluorimetry); assay type: cell-based, Plasmodium falciparum; conditions: 2c 100 µM
Protocol: Erythrocytes (RBCs) infected by P. falciparum (3D7) at the trophozoite stage were lysed with 10 mg/mL saponin (in phosphate-buffered saline) in the presence of 20 µg/mL protease inhibitors (pepstatin A, leupeptin, antipain and chymostatin) and benzamidine (0.5 mmol/L). Erythrocyte membranes were then removed through centrifugation (8700 rpm for 10 min at 4 °C). The parasites were washed three times in buffer M (116 mM NaCl, 5.4 mM KCl, 0.8 mM MgSO4, 5.5 mM D-glucose, 50 mM MOPS, pH 7.3) with CaCl2 (2 mM). The parasites were then re-suspended in the same buffer with Fluo4-AM (5 μM) probenecid (1.8 mM), an inhibitor of organic anion transport (to prevent dye sequestration and release), […] protease inhibitors (pepstatin A, leupeptin, antipain and chymostatin) and benzamidine (0.5 mmol/L) for 50 min at 37 °C. The parasite suspension was then washed three times with buffer M. Spectrofluorimetric measurements were performed in a Shimadzu RF-5301 PC instrument at 37 °C with isolated P. falciparum (3D7) parasites (10^8 cells mL^−1) incubated with MOPS buffer in a 1 mL cuvette. Compound 2c (100 μM) and THG (10 μM) were added during time course experiments, and excitation/emission wavelengths were adjusted to 505/530 nm for Fluo4-AM. Methanol (0.05%) was used as a control. […]

[4] = tested on: P. falciparum chloroquine-sensitive Thai strain; design: method as in PMID 17967541; conditions: chloroquine-sensitive Thai strain ref 10; cited from earlier work
[5] = 24 h, read-out: IC50 (µM) HEK293T 24 h
[6] = 48 h, read-out: IC50 (µM) HEK293T 48 h
[7] = chloroquine-sensitive 3D7 strain, 48 h incubation, n = 3, read-out: IC50 (µM) P. falciparum 3D7
[8] = chloroquine-sensitive 3D7 strain, 48 h incubation, values in nM, read-out: IC50 P. falciparum 3D7

Row | IC50 [2, 7] | Structure (SMILES) | Selectivity Index (SI) 48 h (HEK293T cells) | IC50 (HEK293T cells; [5]) | IC50 (HEK293T cells; [6]) | Antiplasmodial activity grade in words [2] | also measured
1 | 36 µM | C[C@H]1[C@H](C)CC[C@]2(C(=O)O)CC[C@]3(C)C(=CC[C@@H]4[C@@]5(C)CC[C@H](O)C(C)(C)[C@@H]5CC[C@]43C)[C@H]12 [compound 2, Ursolic acid] |  |  |  | inactive | 
2 |  | C=C(C)[C@@H]1CC[C@]2(C(=O)OC)CC[C@]3(C)[C@H](CC[C@@H]4[C@@]5(C)CC[C@H](O)C(C)(C)[C@@H]5CC[C@]43C)[C@@H]12 [methyl betulinate, reference compound] |  |  |  |  | IC50 (Plasmodium 3D7 strain): 7 µM
3 |  | CCN(CC)CCCC(C)Nc1ccnc2cc(Cl)ccc12 (centres unmarked) [chloroquine, reference compound] |  |  |  |  | IC50 ([2]; 3D7, 48 h, read-out: IC50 P. falciparum 3D7): 0.029 µM
4 | 14 µM | CC(=O)O[C@H]1CC[C@@]2(C)C(CC[C@]3(C)C2CC=C2C4[C@@H](C)[C@H](C)CC[C@]4(C(=O)O)CC[C@]23C)C1(C)C (some centres unmarked) [2a] |  |  |  |  | 
5 | 18 µM | C=C(C)[C@@H]1CC[C@]2(C(=O)O)CC[C@]3(C)[C@H](CC[C@@H]4[C@@]5(C)CC[C@H](O)C(C)(C)[C@@H]5CC[C@]43C)[C@@H]12 [compound 1, Betulinic acid] |  |  |  | moderate activity | IC50 (Plasmodium 3D7 strain): 13.9 µM; Efficacy in murine malarial model of P. berghei (P. berghei): ineffective
6 | 15 µM | CC(=O)O[C@H]1CC[C@@]2(C)C(CC[C@]3(C)C2CC=C2C4[C@@H](C)[C@H](C)CC[C@]4(C(=O)NCCCN4CCN(CCCNC(=O)OC(C)(C)C)CC4)CC[C@]23C)C1(C)C (some centres unmarked) [2b] |  |  |  |  | 
7 | 0.175 µM | CC(=O)OC1CCC2(C)C(CCC3(C)C2CC=C2C4C(C)C(C)CCC4(C(=O)NCCCN4CCN(CCCN)CC4)CCC23C)C1(C)C (centres unmarked) [2c] | 23 | 4 µM | 4 µM | excellent activity | IC50 ([1]; HEK293T cells, HEK293T, time not stated, read-out: IC50 cytotoxicity HEK293T): 4 µM; Cytotoxicity judgement in words (HEK293T cells): non-toxic; Effect on parasite calcium homeostasis, in words ([3]; followed by THG 10 µM): can modulate parasite calcium homeostasis; also recorded: led to an increase in intracellular ion concentrations in P. falciparum; Ca2+ concentration, Fluo4/AM fluorescence after addition of compound ([3]; isolated parasites 10^8 cells mL-1, mean ± SEM, n = 9, P = 0.0004 vs methanol 0.05%): 104.9 a.u.; IC50 [4]: 0.167 µM; IC50 [2, 8]: 0.175 to 0.22 µM

Row | Structure (SMILES) | IC50 [2, 7] | Selectivity Index (SI) 48 h (HEK293T cells) | IC50 (HEK293T cells; [5]) | IC50 (HEK293T cells; [6]) | Antiplasmodial activity grade in words [2] | also measured
8 | C=C(C)[C@@H]1CC[C@]2(C(=O)NCCCN3CCN(CCCNC(=O)OC(C)(C)C)CC3)CC[C@]3(C)C(CCC4[C@@]5(C)CC[C@H](OC(C)=O)C(C)(C)C5CC[C@]43C)C12 (some centres unmarked) [1b, N-{3-[4-(3-Aminopropyl)piperazinopropyl]terbutylcarbamate}-3-acetylbetulinamide] | 5 µM | 0.8 | 4 µM | 4 µM | good activity | melting point: 129 °C; IC50 [1]: 4 µM
9 | C=C(C)[C@@H]1CC[C@]2(C(=O)NCCCN3CCN(CCCN)CC3)CC[C@]3(C)C(CCC4[C@@]5(C)CC[C@H](OC(C)=O)C(C)(C)C5CC[C@]43C)C12 (some centres unmarked) [1c, N-{3-[4-(3-aminopropyl)piperazinyl]propyl}-3-acetylbetulinamide] | 0.22 µM | 18 | 4 µM | 4 µM | excellent activity | melting point: 120 °C; IC50 [1]: 4 µM; IC50 [2, 8]: 0.175 to 0.22 µM
10 | C=C(C)[C@@H]1CC[C@]2(C(=O)O)CC[C@]3(C)[C@H](CC[C@@H]4[C@@]5(C)CC[C@H](OC(C)=O)C(C)(C)[C@@H]5CC[C@]43C)[C@@H]12 [1a, 3-O-Acetylbetulinic acid] | 4 µM |  | > 100 µM | > 100 µM | good activity | Cytotoxicity judgement in words (HEK293T cells): not toxic; also recorded: not cytotoxic at the tested concentrations
